# From article PMC2855214 (Biochemistry, 2010)
# Molecular target: T1, human UMP/CMP kinase (Homo sapiens, UniProt P30085)
# T1 sequence (P30085 1-196): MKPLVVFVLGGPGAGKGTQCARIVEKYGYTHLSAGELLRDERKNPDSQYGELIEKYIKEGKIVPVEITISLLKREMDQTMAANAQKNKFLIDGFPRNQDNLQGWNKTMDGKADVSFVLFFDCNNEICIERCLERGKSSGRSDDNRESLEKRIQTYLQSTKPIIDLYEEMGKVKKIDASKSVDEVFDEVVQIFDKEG
# Experiment: preparative enzymatic phosphorylation, product NMR
# Type: biochemical
# Settings: ATP, Mg2+, pH 8, 37 °C
compound,measurement,value
"Nc1ccn([C@@H]2O[C@H](COP(=O)(O)O)[C@@H](O)C2(F)F)c(=O)n1 [F2CMP, 2′-Deoxy-2′,2′-difluorocytidine-5′-monophosphate]","preparative enzymatic phosphorylation, product NMR",F2CDP was generated enzymatically from F2CMP and ATP with human UMP/CMP kinase
